Experimental data as given in patent US11008323B2, “Substituted tricyclic 1,4-benzodiazepinone derivatives as allosteric modulators of group II metabotropic glutamate receptors” (Domain Therapeutics, priority 2015, dated 2021).

Key:
[1] = molecular target: T1, human mGluR3 (hmGluR3) (Homo sapiens, UniProt Q14832); assay: Human mGluR3 positive allosteric modulator evaluation using Ca++ functional assay; format: cell-based; conditions: hmGluR3 transiently over-expressed in HEK-293 cells; stimulated by EC50 glutamate concentration; intracellular Ca2+ (Fluo4AM, FLIPR Tetra)
T1 construct: expressed in transfected cells; host or cells: HEK-293 cells, transient co-transfection by electroporation
Summary of the method: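 Calcium flux (Fluo4, ex 485/em 525 nm) recorded first 10 min with compound alone, then 3 min after an EC50 glutamate challenge, giving agonist and PAM EC50 from 20-concentration sigmoidal fits. Receptor was transiently co-transfected in HEK-293 with chimeric G protein and glutamate transporters.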

[2] = test system: cortical primary neurons; assay: NMDA-induced neurotoxicity assay on cortical primary neurons (MTT test); format: cell-based, mouse; conditions: 24 hours
Procedure: Primary mouse neurons were incubated with vehicle or NMDA (60 μM)+vehicle or example 207 or LY379268 (mixed mGluR2/3 agonist used as positive control) for 24 hours. Tests were performed in triplicate. Neuron viability was measured using a MTT test.

[3] = test system: striatal primary neurons; assay: NMDA-induced neurotoxicity assay on striatal primary neurons (MTT test); format: cell-based, mouse; conditions: 24 hours
Procedure: Primary mouse neurons were incubated with vehicle or NMDA (60 μM)+vehicle or example 63 or LY379268 (mixed mGluR2/3 agonist used as positive control) for 24 hours. Tests were performed in triplicate. Neuron viability was measured using a MTT test.

[4] = alone, in absence of NMDA challenge, 30 nM to 30 μM

T1 sequence (Q14832 23-879): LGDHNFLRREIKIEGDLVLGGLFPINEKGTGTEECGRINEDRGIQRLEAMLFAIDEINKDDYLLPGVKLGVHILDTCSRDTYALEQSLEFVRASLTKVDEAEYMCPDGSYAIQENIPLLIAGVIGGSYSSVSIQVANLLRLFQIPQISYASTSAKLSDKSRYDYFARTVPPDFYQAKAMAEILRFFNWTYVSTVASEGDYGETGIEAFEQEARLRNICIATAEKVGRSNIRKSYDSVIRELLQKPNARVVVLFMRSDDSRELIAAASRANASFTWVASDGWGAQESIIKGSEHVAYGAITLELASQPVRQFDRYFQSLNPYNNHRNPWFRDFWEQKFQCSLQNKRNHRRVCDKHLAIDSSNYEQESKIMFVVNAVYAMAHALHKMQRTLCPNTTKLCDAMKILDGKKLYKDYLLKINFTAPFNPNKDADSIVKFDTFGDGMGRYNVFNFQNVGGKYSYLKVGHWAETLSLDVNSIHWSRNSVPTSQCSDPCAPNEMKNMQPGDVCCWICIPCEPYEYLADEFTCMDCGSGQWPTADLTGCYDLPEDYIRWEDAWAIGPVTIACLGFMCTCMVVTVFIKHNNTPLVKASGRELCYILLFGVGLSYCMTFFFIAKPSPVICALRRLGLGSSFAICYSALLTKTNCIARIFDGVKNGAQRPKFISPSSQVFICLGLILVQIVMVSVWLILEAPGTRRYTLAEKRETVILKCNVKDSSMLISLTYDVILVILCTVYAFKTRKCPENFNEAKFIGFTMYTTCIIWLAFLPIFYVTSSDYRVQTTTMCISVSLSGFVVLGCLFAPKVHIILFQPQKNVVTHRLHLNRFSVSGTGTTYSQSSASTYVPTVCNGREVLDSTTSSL

SMILES	EC50 [1]	melting point	other results
N[C@@]1(C(=O)O)CO[C@H]2[C@H](C(=O)O)[C@H]21 [LY379268]	–	–	NMDA-induced toxicity, cortical primary neurons ([2]; at 1 μM, NMDA 60 μM): decreases NMDA-induced toxicity; toxicity alone, cortical primary neurons ([2]; reference alone): no toxicity alone; NMDA-induced toxicity, striatal primary neurons ([3]; at 1 μM, NMDA 60 μM): decreases NMDA-induced toxicity; toxicity alone, striatal primary neurons ([3]; reference alone): no toxicity alone
CN1C(=O)c2cc(-c3ccccc3)cn2-c2ccc(N3CCOCC3)cc2C12CC2 [Example 120, 8-Morpholin-4-yl-5-methyl-2-phenyl-spiro[benzo[f]pyrrolo[1,2-a][1,4]diazepine-6,1′-cyclopropan]-4(5H)-one]	> 1000 nM	117 to 123 °C	–
CN(C)c1ccc(-c2ccc3c(c2)-n2cc(-c4nnco4)cc2C(=O)N(C)C32CC2)cn1 [Example 190]	< 100 nM	> 250 °C	–
CN[C@H](CC(=O)O)C(=O)O [NMDA, N-methyl-D-aspartate]	–	–	reduction of the neuron viability, cortical primary neurons ([2]; NMDA 60 μM + vehicle): ~50%; reduction of the neuron viability, striatal primary neurons ([3]; NMDA 60 μM + vehicle): ~70%

More lines, main results first:

EC50 [1]	melting point	SMILES	other results
< 100 nM	71 to 80 °C	COCc1cc2n(c1)-c1cc(-c3ccc(F)nc3)ccc1C1(CC1)N(C)C2=O [Example 207]	toxicity induced by NMDA (neuroprotection), cortical primary neurons ([2]; NMDA 60 μM, effect tending to disappear at higher concentrations): reduces in a dose-dependent manner the toxicity induced by NMDA up to 1 μM; toxicity on cortical primary neuron viability [2, 4]: no toxicity
< 100 nM	148 to 156 °C	CN1C(=O)c2cccn2-c2cc(-c3ccc(F)cn3)ccc2C12CC2 [Example 63, 5-Methyl-9-(5-fluoropyridin-2-yl)-spiro[benzo[f]pyrrolo[1,2-a][1,4]diazepine-6,1′-cyclopropan]-4(5H)-one]	toxicity induced by NMDA (neuroprotection), striatal primary neurons ([3]; NMDA 60 μM, effect tending to disappear at 30 μM): reduces in a dose-dependent manner the toxicity induced by NMDA up to 10 μM; toxicity on striatal primary neuron viability [3, 4]: no toxicity
100 to 1000 nM	130 to 141 °C	CN1C(=O)c2cc(-c3ccccc3)cn2-c2cc(-c3cnccn3)ccc2C12CC2 [Example 108, 5-Methyl-2-phenyl-9-pyrazin-2-yl-spiro[benzo[f]pyrrolo[1,2-a][1,4]diazepine-6,1′-cyclopropan]-4(5H)-one]	–
> 1000 nM	133 to 140 °C	CN1C(=O)c2cc(-c3ccccc3)nn2-c2cc(-c3ccccc3)ccc2C12CC2 [Example 123, 2,9-Diphenyl-5-methyl-2-spiro[benzo[f]pyrazolo[1,5-a][1,4]diazepine-6,1′-cyclopropan]-4(5H)-one]	–
